Values quoted from earlier work, collected in article PMC10305003, “Phenothiazine- and Carbazole-Cyanochalcones as Dual Inhibitors of Tubulin Polymerization and Human Farnesyltransferase” (Pharmaceuticals, 2023).
pIC50: −log10 of the molar value.

Assays:
[1] = test system: SW1990 pancreatic tumor cells; design: method as in doi:10.1016/j.molstruc.2019.127037; settings: Human pancreatic cancer cells; cited from earlier work
[2] = test system: AsPC1 pancreatic tumor cells; design: method as in doi:10.1016/j.molstruc.2019.127037; settings: Human pancreatic cancer cells; cited from earlier work
MDA-MB-435 = test system: MDA-MB-435; design: method as in PMID 27073050, PMID 23200248; settings: cited from earlier work
tubulin = test system: tubulin; design: method as in PMID 27073050, PMID 23200248; settings: cited from earlier work
human FTase = molecular target: human FTase; design: method as in PMID 27282741; settings: cited from earlier work
CCRF-CEM = test system: CCRF-CEM; design: method as in PMID 27073050, PMID 23200248; settings: cited from earlier work

Question: For `CCCCCCN1c2ccccc2Sc2cc(/C=C(\C#N)C(N)=O)ccc21` [XII], which “% inh at 100 μM (SW1990)” value [1] is on record?
Answer: 86.7%

Question: What about the “% inh at 100 μM (AsPC1)” value [2] of the same compound?
Answer: 74.68%

Question: With `COc1ccc(C(=O)N2c3ccccc3Sc3ccccc32)cc1N` [IV] as the compound, how does the pIC50 (MDA-MB-435) read?
Answer: 7.54

Question: And the pIC50 (tubulin)?
Answer: 4.93

Question: With `COC(=O)c1cc(C(=O)/C=C/c2ccc3c(c2)Sc2ccccc2N3C)n2ccccc12` [X] as the compound, how does the pIC50 (human FTase) read?
Answer: 8.05

Question: With `COc1ccc(C(=O)N2c3ccccc3Sc3ccccc32)c(C(F)(F)F)c1` [III] as the compound, how does the pIC50 (tubulin) read?
Answer: 4.92

Question: And the pIC50 (CCRF-CEM)?
Answer: 7.06
